The subject of this assay is HaCaT keratinocytes exposed to UVA. Briefly: Antioxidant/free-radical scavenging activity with respect to UVA oxidative stress induced on keratinocytes (DCFH-DA fluorescent probe). It counts as cell-based. The following applies: 30 μM, 24 hours pre-incubation, UVA 2 J/cm^2, DCF fluorescence. On the procedure:
Method for Evaluating the Antioxidant/Free-Radical Scavenging Activity of the Polymers of the Invention with Respect to a UVA Oxidative Stress Induced on Keratinocytes
The technique for evaluating the photoprotection was carried out according to a well-known method (J. of Photochemistry and Photobiology B: Biology 57 (2000) 102-112 TOBI et al: Glutathione modulates the level of free radicals produced in UVA irradiated cells). This technique used a fluorescent probe, a marker for intracellular global oxidative stress, 2′-7′-dichlorofluorescin diacetate (DCFH-DA).
The use of DCFH-DA as a marker of the oxidative stress rests on its physicochemical properties. It is an apolar and non-ionic molecule capable of diffusing through cell membranes. Once inside the cell, DCFH-DA will be hydrolysed by intracellular esterases to a non-fluorescent compound: DCFH or 2,7-dichlorofluorescin. In the presence of activated oxygen species, DCFH is rapidly oxidized to a highly fluorescent compound: DCF or 2,7-dichlorofluorescein.
Three compounds were tested: hexadimethrine chloride (MEXOMERE PO from Chimex corresponding to a polycondensate of formula (I)), citric acid and glycine (0.0001% w/v for the MEXOMERE PO, 30 μM for the citric acid and the glycine). […]
The fluorescence of DCF was evaluated immediately after the exposure to UVA, by spectrofluorimetry (excitation: 480 nm; emission: 530 nm).

Turning to `O=C(O)CC(O)(CC(=O)O)C(=O)O` [Citric acid, citric acid], the “level of protection (antioxidant efficacy with respect to UVA oxidative stress)” value is recorded as around 18%.
In the case of `NCC(=O)O` [glycine] it was around 15%.

These data come from patent US20090214459A1, “METHOD OF USING CERTAIN CATIONIC POLYMERS AS ANTIOXIDANTS OR FREE-RADICAL SCAVENGERS” (priority 2008, published 2009).
